Here are results for ten molecules from US7034046B2, “NR1H4 nuclear receptor binding compounds” (Phenex Pharmaceuticals AG, priority 2001, dated 2006).

The target of one experiment is T1, FXR (Homo sapiens, UniProt Q96RI1).
T1 construct: expressed in transfected cells
T1 sequence (Q96RI1 1-472 isoform Q96RI1-2): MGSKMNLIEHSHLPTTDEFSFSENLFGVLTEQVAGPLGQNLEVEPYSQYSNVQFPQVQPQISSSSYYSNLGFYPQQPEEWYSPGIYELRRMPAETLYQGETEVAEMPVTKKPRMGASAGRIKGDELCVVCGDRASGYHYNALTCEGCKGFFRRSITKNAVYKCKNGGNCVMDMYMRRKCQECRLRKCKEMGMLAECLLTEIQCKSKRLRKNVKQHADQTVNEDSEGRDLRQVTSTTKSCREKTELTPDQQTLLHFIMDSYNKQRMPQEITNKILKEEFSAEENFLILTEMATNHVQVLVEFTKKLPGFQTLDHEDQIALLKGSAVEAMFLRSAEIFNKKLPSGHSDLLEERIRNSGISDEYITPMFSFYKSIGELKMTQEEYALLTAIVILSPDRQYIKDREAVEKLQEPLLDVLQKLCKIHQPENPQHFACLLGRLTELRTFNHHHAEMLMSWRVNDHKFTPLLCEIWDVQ
The experiment in a line: FXR-mediated transactivation, luciferase reporter in stable HEK293FXR reporter cell line. Type of experiment: cell-based. The settings on record: HEK293FXR reporter cells, 16 hours. From the text: A compound according to the invention (experiments shown were done with MOLSTRUCTURE LN 0000006734; see Table 1 for structural formula) can mediate transactivation of FXR-mediated transcription in a HEK293 reporter cell line. […] The full length human FXR (accession U68233) and the full length human RXRα (accession P19793) were cloned into the […]30 applying the manufacturer protocols for the GatewayTM system (Invitrogen). The FXR response elements were cloned (upper case). [NT] ID NO. 5) was obtained from the human IBAB-P promoter (Grober et al 1999, JBC 274, pp. 29749-29754). A stable clone was selected and seeded at a density of 5×10^4 cells per well in 48 well plates. […] Variations of duplicate measurements are within 20%.
Background: A reporter such as luciferase makes a cellular process visible.

For the next experiment, the target named is T2, human FXR alpha (NR1H4) (Homo sapiens, UniProt Q96RI1).
T2 construct: human FXR alpha (NR1H4—(Acc. No:AF384555)) encoding amino acids 187–472; made in house; host or cells: E. coli BL21
T2 sequence (Q96RI1 187-472 isoform Q96RI1-2): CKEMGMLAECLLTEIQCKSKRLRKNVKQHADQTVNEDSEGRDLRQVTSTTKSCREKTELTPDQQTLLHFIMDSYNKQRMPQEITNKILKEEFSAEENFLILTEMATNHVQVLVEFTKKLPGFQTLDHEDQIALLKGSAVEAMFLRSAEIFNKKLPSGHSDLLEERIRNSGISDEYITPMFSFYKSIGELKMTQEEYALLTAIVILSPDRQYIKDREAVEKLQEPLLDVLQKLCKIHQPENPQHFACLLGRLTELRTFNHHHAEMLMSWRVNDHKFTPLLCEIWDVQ
T2 sequence (Q15596 548-878 partner limits assumed): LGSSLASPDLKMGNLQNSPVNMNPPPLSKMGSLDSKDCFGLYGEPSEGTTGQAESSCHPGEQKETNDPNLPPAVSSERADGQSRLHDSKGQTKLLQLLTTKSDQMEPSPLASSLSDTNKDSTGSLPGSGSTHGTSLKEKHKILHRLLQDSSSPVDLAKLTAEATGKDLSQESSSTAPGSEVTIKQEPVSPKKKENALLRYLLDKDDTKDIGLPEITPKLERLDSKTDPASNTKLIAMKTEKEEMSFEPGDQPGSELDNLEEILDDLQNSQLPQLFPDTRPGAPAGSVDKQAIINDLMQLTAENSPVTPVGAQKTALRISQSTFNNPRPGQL
The experiment in a line: In vitro screening for FXR binding to coactivator TIF2 (LANCE TR-FRET). Type of experiment: biochemical. The source says:
For screening purposes a fragment of the open reading frame of human FXR alpha (NR1H4—(Acc. No:AF384555)) encoding amino acids 187–472 was amplified by standard RT PCR procedures (see FIGS. 2A and 2B; SEQ ID NO. 1 and 2). Starting material was total RNA derived from human liver. The resulting cDNA obtained after reverse transcription was subsequently cloned using the Gateway™ recombination technology (Invitrogen, USA) into the expression plasmid pDest15 (Invitrogen, USA). This construct was used to express a recombinant GST-FXR fusion protein in E.coli (BL21 strain). A pDEST 17 derivative clone harboring an additional sequence encoding amino acids 548–878 of human TIF2 (Acc. No: XM—011633 RefSeq) (see FIGS. 2C and 2D, SEQ ID NO. 3 and 4) was constructed using Gateway™ recombination technology (Invitrogen, USA) in order to obtain a construct which was used to express recombinant His-tagged TIF2 fragment could be expressed in E. coli. For E. coli expression of both constructs, plasmid DNA was transformed into chemically competent E. coli BL21 (Invitrogen, USA) and cells were grown to an OD600 of 0.4–0.7 before expression was induced by addition of 0.5 mM IPTG according instructions of the manufacturer (Invitrogen). After induction for 8 hours at 30° C. cells were harvested by centrifugation for 10 minutes at 5000×g. Fusion proteins were affinity purified using Glutathion sepharose (Pharmacia) or Ni-NTA Agarose (QIAGEN) according to the instructions of the respective manufacturer. Recombinant proteins were dialyzed against 20 mM Tris/HCL pH 7.9; 60 mM KCl; 5 mM MgCl2; 1 mM DTT, 0.2 mM PMSF; and 10% glycerol. The TIF2 fragment was subsequently biotinylated by addition of 40–120 μl of a biotinamidocaproate N-hydroxysuccinimide-ester (Sigma) solution (20 mg/ml in DMSO). Overhead rotating samples were incubated for two hours at room temperature. Unincorporated label was then separated using G25 Gel filtration chromatography (Pharmacia Biotech, Sweden). Protein containing fractions from the column were pooled and tested for activity in the assay as described below.
For screening of compound libraries as provided for by the methods shown below in the examples for substances which influence the FXR/Tif 2 interaction, the Perkin Elmer LANCE technology was applied. This method relies on the binding dependent energy transfer from a donor to an acceptor fluorophore attached to the binding partners of interest. For ease of handling and reduction of background from compound fluorescence LANCE technology makes use of generic fluorophore labels and time resolved detection (for detailed description See Hemmilä I, Blomberg K and Hurskainen P, Time-resolved resonance energy transfer (TR-FRET) principle in LANCE, Abstract of Papers Presented at the 3rd Annual Conference of the Society for Biomolecular Screening, Sep., California (1997)).
For screening, 20–200 ng of biotinylated Tif 2 fragment and 10–200 ng of GST-FXR fragment were combined with 0.5–2 nM LANCE Eu-(W1024) labeled anti-GST antibody (Perkin Elmer) and 0.5–2 μg of Highly fluorescent APC-labeled streptavidin (Perkin Elmer) in the presence of 50 μM of individual compounds to be screened in a total volume of 25 μl of 20 mM Tris/HCl pH 7.9; 60 mM KCl; 5 mM MgCl2; and 160 ng/μl BSA. DMSO content of the samples was kept below 4%. Samples were incubated for a minimum of 60 minutes in the dark at room temperature in FIA-Plates black 384well med. binding (Greiner).
The LANCE signal was detected by a Perkin Elmer VICTOR2V™ Multilabel Counter applying the detection parameters listed in Table 3, below. The results were visualized by plotting the ratio between the emitted light at 665 nm and at 615 nm. For every batch of recombinant proteins amount of proteins and labeling reagents giving the most sensitive detection of hits was determined individually by analysis of dose response curves for chenodeoxycholic acid.
Background: TR-FRET usually uses a lanthanide donor and a delayed reading to cut background.

Where [1] appears, read: average of multiple experiments, read-out: EC50 AVG.

Read-outs that look alike come from different tables or passages of the source.

For `CC(C)c1onc(-c2c(Cl)cccc2Cl)c1COc1ccc2cc(C(=O)O)ccc2c1` [LN0000000169], the Luciferase reporter activity at FXR (0.08 μM) stood at 1630.0; at FXR (0.4 μM), 2754.0; on FXR (1 μM), 4600.0; on FXR (2 μM), 5775.7; at FXR (10 μM), 6829.3; at FXR (50 μM) it was 13375.7. Besides, at human FXR alpha (NR1H4) (setting [1]), the EC50 came out at 2600 nM. For the same molecule, the “EFFIC AVG (average efficacy, % activity relative to CDCA control agonist)” value on human FXR alpha (NR1H4) is listed as 134%.
On to `CC(C)c1onc(-c2c(Cl)cccc2Cl)c1COc1ccc(Oc2ccc(C(=O)O)cc2)cc1` [LN0000006734], for which the Luciferase reporter activity came to 2153.0 on FXR (0.08 μM); 2991.5 at FXR (0.4 μM); 5360.5 at FXR (1 μM); 6330.5 at FXR (2 μM); 8523.5 on FXR (10 μM); 13309.5 on FXR (50 μM). The EC50 is roughly 1000 nM on FXR (read-out: EC50 of dose-dependent transactivation of the reporter gene luciferase by FXR) and 600 nM on human FXR alpha (NR1H4) (setting [1]). For the same molecule, the “EFFIC AVG (average efficacy, % activity relative to CDCA control agonist)” value on human FXR alpha (NR1H4) was 85%.
On to `COC(=O)CCc1ccc(OCc2c(-c3c(Cl)cccc3Cl)noc2C(C)C)cc1` [LN0000006764], for which, on human FXR alpha (NR1H4) (setting [1]), the EC50 is 720 nM. Further, the “EFFIC AVG (average efficacy, % activity relative to CDCA control agonist)” value at human FXR alpha (NR1H4) was determined as 108%.
For `CC(C)c1onc(-c2c(Cl)cccc2Cl)c1COc1ccc(CCC(=O)O)cc1` [LN0000006765], in that order: 430 nM and 115%.
Taken in the same sequence, the figures for `CC(C)c1onc(-c2c(Cl)cccc2Cl)c1COc1ccc(OCC(=O)O)cc1` [LN0000006767] were 230 nM and 117%.
Taken in the same sequence, the figures for `CC(C)c1onc(-c2c(Cl)cccc2Cl)c1COc1ccc(/C=C/C(=O)O)c(Cl)c1` [LN0000006772] were 50 nM and 100%.
As to `CC(C)c1onc(-c2c(Cl)cccc2Cl)c1COc1ccc(OCC(=O)O)cc1` [formula (II)], the EC50 on human FXR alpha (NR1H4) (read-out: EC50 at FXR (half-maximal effective concentration)) was 230 nM.
`CC(C)c1onc(-c2c(Cl)cccc2Cl)c1COc1ccc(Oc2ccc(C(=O)O)cc2)cc1` [formula III]: the “agonist of the NR1H4 human nuclear receptor” value on human FXR alpha (NR1H4) is “active as agonist”.
On the same count and under the same terms, the entry for `CC(C)c1onc(-c2c(Cl)cccc2Cl)c1COc1ccc(CCC(=O)O)cc1` [formula IV] is “active as agonist”; for `CC(C)c1onc(-c2c(Cl)cccc2Cl)c1COc1ccc(/C=C/C(=O)O)c(Cl)c1` [formula V] it is “active as agonist”.
